Assay [1] deals with MRSA clinical isolate 2706. To be noted: MRSA clinical isolate 2706 (blood); broth microdilution, MHB, 24 h. (Broth dilution looks for growth in wells or tubes with falling amounts of substance.)
Procedure: (§1) Antimicrobial activity of peptides was analyzed through determination of MIC parameter according to the standard microdilution technique performed on 96-well plates. Mueller-Hinton broth (MHB, Sigma Aldrich, St. Louis, MO, USA) was used as the working medium for all bacterial strains. Briefly, inoculum was prepared from freshly grown cultures of bacteria being at their exponential phase of growth. Each well of 96-well plates containing 100 µL of serially diluted peptides in PBS at desired concentration was inoculated with 100 µL of 10^5 CFU/mL of bacterial suspension. Then plates were incubated overnight 37 °C and absorbance was read at 600 nm after 24 h. Wells without peptide were treated as the positive control, while uninoculated MHB was defined as the negative control. All measurements were run in triplicates.
The test system of assay [2] is S. epidermidis ATCC 12228. The note with it: S. epidermidis ATCC 12228; broth microdilution, MHB, 37 °C, 24 h, triplicates.
Procedure: as §1
The test system of assay [3] is MRSA clinical isolate 2492. The note with it: MRSA clinical isolate 2492 (blood); broth microdilution, MHB, 24 h.
Procedure: as §1
Assay [4] relates to S. aureus USA300 (MRSA) in suspension. Put plainly: Killing of MRSA in suspension, CFU count. Type of assay: cell-based, Staphylococcus aureus. The note with it: MRSA 2 × 10^6 CFU/mL, peptide 50 μg/mL, 1 h, n = 2.
For assay [5], the system named is S. aureus USA300 cytoplasmic membrane. Put plainly: Sytox green uptake (membrane permeabilization). It is filed as cell-based, Staphylococcus aureus. As to the method: The USA300 strain was grown to mid-logarithmic phase at 37 °C, washed, and resuspended in 10 mM sodium phosphate buffer (pH 7.2) Bacterial cells were then incubated with 1 µM Sytox green for 15 min in the dark. After the addition of desired concentration of peptide conjugate (5–100 µg/mL), the time-dependent increases in fluorescence caused by the binding of the cationic dye to intracellular DNA were monitored (excitation at 485 nm and emission at 520 nm).

For assay [6], the system named is MRSA clinical isolate 7219. To be noted: MRSA clinical isolate 7219 (blood); broth microdilution, MHB, 24 h.
Procedure: as §1
The test system of assay [7] is intracellular S. aureus USA300 in HaCaT cells. Put plainly: Killing of intracellular S. aureus in keratinocytes, CFU count.
Procedure: (A) USA300 survival within infected HaCaT cells. Keratinocytes were infected with USA300 (MOI 1:5, 1:25, 1:50, 1:100) for 2.5 h and treated with DAL-PEG-DK5 (50 μg/mL) for 3 h. Afterwards, keratinocytes were lysed and plated on agar plates for counting of bacteria. The number of viable bacterial cells is expressed as CFU/mL with respect to the number of intracellular bacteria in the corresponding control samples. The data shown is representative of two separate experiments performed in triplicate. Mean ± SD n = 2. * p < 0.01; ** p < 0.005; one-way ANOVA. (B) Keratinocytes were infected with USA300 (MOI 1:50) for 2.5 h and treated with DAL-PEG-DK5 (50 μg/mL) for indicated time points (1, 3, 6 h). Afterwards, keratinocytes were lysed and plated on agar plates for counting of bacteria. The number of viable bacterial cells is expressed as a CFU/mL with respect to the number of intracellular bacteria in the corresponding control samples. Mean ± SD n = 2. * p < 0.01; ** p < 0.005; **** p < 0.0001; one-way ANOVA. […] (C) Keratinocytes were infected with USA300 (MOI 1:50) for 2.5 h and treated with DAL-PEG-DK5 (50 μg/mL) for 1 h. Afterwards, keratinocytes were lysed and plated on agar plates for counting of bacteria. […] The number of viable bacterial cells is expressed as a % of control with respect to the number of intracellular bacteria/bacteria in suspension in the corresponding control samples. […]

From publication PMC6801822, “The Bactericidal Activity of Temporin Analogues Against Methicillin Resistant Staphylococcus aureus” (International Journal of Molecular Sciences, 2019) come the findings set out here.

In brackets after ≈: the same amount, converted by molar mass. Non-standard residues stand in square brackets, D forms with d. Residues, ends and D or L forms follow the SMILES beside them. AEEA = NCCOCCOCC(=O)O

As usually defined, the MIC is the least concentration at which growth counts as inhibited. As for `CC[C@H](C)[C@H](NC(=O)COCCOCCNC(=O)[C@H](CCCNC(=N)N)NC(=O)[C@H](CC(C)C)NC(=O)[C@H](Cc1ccccc1)NC(=O)CNC(=O)[C@@H](C)NC(=O)[C@@H](N)Cc1ccc(O)cc1)C(=O)N[C@@H](CCCCN)C(=O)N[C@@H](CCCCN)C(=O)N[C@H](C(=O)N[C@@H](CC(C)C)C(=O)N[C@@H](CO)C(=O)N[C@H](CCCCN)C(=O)N[C@H](C(=O)N[C@@H](CCCCN)C(=O)N[C@@H](CCCCN)C(=O)N[C@@H](CC(C)C)C(=O)N[C@@H](CC(C)C)C(N)=O)[C@@H](C)CC)[C@@H](C)CC` [DAL-PEG-DK5] (H-Y[dA]GFLR[AEEA]IKKILS[dK]IKKLL-NH2; N-terminus assumed), the MIC was 40 µg/mL (≈ 17.6 µM) in assay [1], 60 µg/mL (≈ 26.4 µM) in assay [2], 40 µg/mL (≈ 17.6 µM) in assay [3] and 30 µg/mL (≈ 13.2 µM) in assay [6]. Moreover, in assay [4], the “reduction in the number of live bacteria in suspension” value stood at 74%. Further, in assay [5] (5 min post-treatment, peptide 10 μg), the “permeabilization of the cell membrane” value is listed as “marked permeabilization of the cell membrane”. Further, the “concentration at which permeabilization of the bacterial membrane reached a plateau” value in assay [5] (USA300, 1 μM Sytox green, 10 mM sodium phosphate buffer pH 7.2, up to 60 min) was 25 µg/mL. In addition, in assay [7] (HaCaT infected 2.5 h at MOI 1:50 and 1:100, peptide 50 μg/mL, 3 h), the “reduction of intracellular USA300 load” value is reported as “more than 60%”. Further, the “reduction of MRSA load in keratinocytes” value in assay [7] (HaCaT, USA300 MOI 1:50, peptide 50 μg/mL (1.25 × MIC), 1 h, n = 2) is recorded as 71.5%.
